Laboratory results from patent publication US20180021315A1, “METHODS OF TREATING HEARING DISORDERS” (Wayne State University, priority 2016, published 2018).
Entries after “also recorded” stand apart in the source; their conditions may differ. Like-named read-outs stand apart in the source and are kept apart here.

Tests used:
TNF-α = details: has been shown; cited from earlier work
WT and KO mice = details: systemic salicylate injection, FIGS. 5C-5D
Protocol: To assess an animal's ability to perform an auditory task, separate from its ability to detect a silent gap, the pre-pulse inhibition (PPI) task was administered to a subset of the mice before and after NIHL. The physical setup for the PPI task was identical to that of the gap detection. However, the trial structure differed in that carrier tone was absent and a white noise burst was cued by a 50-ms pure tone pulse (frequency pseudo-randomly selected from 5, 7, 10, 14, 20, 28, or 45 kHz, all at 75 dB SPL). In short, the PPI task tests an animal's ability to detect a pure tone pulse in silence, while the gap detection task measures an animal's ability to detect a silent gap in a continuous pure tone.

[1] = tested on: wildtype and TNF-α KO mice
Protocol: Tinnitus was assessed using the gap detection paradigm. The gap detection task measures the acoustic startle response elicited by a brief white noise pulse and its suppression by a preceding silent gap embedded in a background sound. […] Mice were placed in a small box, which rested atop a piezoelectric sensor within a sound attenuation chamber. Sounds were played through an open field speaker (FOSTEX FT17H) fixed above the small box. Each trial began with a carrier pure tone (frequency pseudo-randomly selected from 5, 7, 10, 14, 20, 28, or 45 kHz, all at 75 dB SPL), played for 10-20 s. In uncued trials, the carrier tone was followed by a startle stimulus—a 50 ms white noise burst at 102 dB SPL. In cued trials, the startle stimulus was preceded by a 50 ms silence, 100 ms prior to its onset. In each testing session, the animal performed a total of 500 trials (50% cued and 50% uncued). After each session, the startle response ratio was calculated, which is defined as the average startle amplitude to the cued trials divided by the average amplitude of the uncued trials. The startle response ratio signifies a silent-gap induced reduction of the startle response. For example, a startle response ratio of 0.6 indicates a 40% reduction of the startle amplitude for the cued trials.

blast-exposed rats [2] = assay: Blast-induced tinnitus, gap detection, thalidomide treatment; assay type: in vivo, rat; details: injected daily for 5 days, FIG. 8C
Protocol: A rat model of blast-induced tinnitus was developed to investigate the role of TNF-α in a traumatic brain injury (TBI) blast exposure induced tinnitus. Rats were anesthetized with isoflurane (0.75-1% in a 2:1 N2O:O2 gas mixture), placed on supportive netting, and secured with a locking device. All animals had one ear occluded with an earplug before they were blast-exposed in a shock-tube assembly (ORA, Inc.).
Behavioral evidence of blast-induced tinnitus was tested using a gap detection test as described above. […] Blast-exposed rats also spent less time in, and made fewer entries into, the open arms of an elevated plus maze (FIG. 7C), showing a higher anxiety level. The results are consistent with findings in blast-exposed humans and indicate that the blast model is suitable for studying mechanisms and treatment of blast-induced tinnitus and anxiety.

C57BL/6 mice = assay: Noise-induced tinnitus (NIHL), gap detection task, thalidomide treatment; assay type: in vivo, mouse; details: 100 mg/kg IP daily for three days after noise exposure, FIG. 9
Protocol: All experimental procedures were reviewed and approved by UC Berkeley Animal Care and Use Committee. TNF-α knockout (KO) mice and corresponding C75Bl/6 wild-type (WT) mice were originally purchased from the Jackson Laboratory and were bred in a UC Berkeley animal facility. Animals were anesthetized with ketamine (100 mg/kg, IP) and xylazine (10 mg/kg, IP) and maintained at 36.5° C. with a homeothermic heating pad (Harvard Apparatus). Unilateral noise-induced hearing loss (NIHL) experiments were performed in a sound attenuation chamber by playing a continuous pure tone of 8 kHz at 112 dB SPL through a calibrated custom-made piezo earphone speaker to the left ear of the mouse for 2 hours, while the right ear was protected with sound attenuating clay. The sound level was calibrated with a Bruel and Kjaer 4135 condenser microphone (Nærum, Denmark) before and after the NIHL.
Tinnitus was assessed using the gap detection paradigm.
Eight C57BL/6 mice were tested with the gap detection task, described above, before and after undergoing NIHL. […] Afterward, animals received daily injection of 100 mg/kg (IP) thalidomide for three days and were tested for tinnitus.

[3] = 5 mg/kg, I.P. route; cited from earlier work
blast-exposed rats [4] = assay: Blast-induced tinnitus, gap ratio, etanercept; assay type: in vivo, rat; details: for gap ratio values (gap/startle-only response), therapeutic effect on tinnitus: FIG. 29
Protocol: Each of the rats was subjected to blast exposure in the left ear using a shock tube (ORA Inc.) located at the Wayne State University Bioengineering Center. The blast exposure of each rat was performed under anesthesia with a mixture of air (1 liter/min) and isoflurane (5% v/v). The rat was placed on supportive netting with a metal surround and secured on a pole with its head facing the oncoming shockwave. During blast exposure, the rat's right ear was occluded with a silicone earplug (Mack's; McKeon Products, Warren, Mich.), followed by application of mineral oil to seal any remaining openings. The average energy under 10 kHz measured at 22 psi was equivalent to 150 kPa or 197.5 dB SPL. After blast exposure, each rat was transferred to a polycarbonate cage.
Thirty two rats from Example 10 were used. Behavioral tinnitus testing, including gap detection and PPI testing, was conducted with Hamilton-Kinder startle-reflex hardware and software. During behavioral testing, each rat was placed in an individual noise-attenuation chamber to perform gap and PPI testing. In the gap procedure, each rat was presented with a constant 60-dB SPL background noise composed of 2,000 Hz bandpass signals at 6-8, 10-12, 14-16, 18-20, or 26-28 kHz or broadband noise (BBN; 2-30 kHz). A 115 dB SPL, 50 ms noise-burst was used as the startle stimulus to induce the acoustic startle reflex. The background noise session contained two conditions, one condition was the startle only condition in which rat was presented with the startle stimulus alone, and the other condition was the gap condition in which a rat was presented with a startle stimulus preceded by a silent gap embedded within the background noise. Silent gaps were 40 ms in duration with a lead interval of 90 ms to the startle stimulus. The startle reflex of rats was measured in response to 3 conditions: 1) background noise alone, 2) startle only, and 3) gap. […] The startle amplitude of rats in response to the two conditions was measured: the startle-only condition and a prepulse followed by the startle stimulus. […]

O=C(O)c1ccccc1O [salicylate]
TNF-α expression in the inferior colliculus (TNF-α): increase TNF-α expression in the inferior colliculus
PPI performance (WT and KO mice): affected PPI performance in WT but not KO mice
behavioral manifestation of tinnitus (gap detection) ([1]; TNF-α KO mice, same dose 300 mg/kg, FIG. 5B): did not show tinnitus
behavioral manifestation of tinnitus (gap detection) ([1]; wildtype mice, systemic injection 300 mg/kg, 30 min later, FIG. 5A): resulted in robust behavioral manifestation of tinnitus

O=C1CCC(N2C(=O)c3ccccc3C2=O)C(=O)N1 (stereo not shown) [thalidomide]
blast-induced tinnitus (gap detection) (blast-exposed rats [2]): Significant suppression of tinnitus; also recorded: significantly suppressed
gap detection performance after NIHL (C57BL/6 mice): dramatically improved gap detection performance over a wide frequency range, completely reversing the impairment

etanercept
effect on TBI [3]: attenuates TBI
gap ratio values (gap/startle-only response), therapeutic effect on tinnitus (blast-exposed rats [4]; 5 mg/kg i.p. daily for 5 days from 1 day after blast, low frequencies and 28 kHz, two-week and three-week timepoints): significant therapeutic effect on tinnitus
gap ratio values (gap/startle-only response), therapeutic effect on tinnitus (blast-exposed rats [4]; 5 mg/kg i.p. daily for 5 days, one-day and one-week timepoints): less pronounced
onset of therapeutic effect relative to 3,6′-dithiothalidomide (blast-exposed rats [4]; compare FIG. 29 with FIG. 15A): delayed therapeutic effect
